Laboratory results: patent EP0112332B1, “VITAMIN D GLYCOSIDES” (THE GENERAL HOSPITAL CORPORATION, priority 1982, dated 1984)

Assays:
[1] = in vivo, dosed parenterally and daily; cited from earlier work
[2] = system: Intestinal calcium transport; experiment: Intestinal calcium transport by the everted gut sac technique after oral dosing of vitamin D deficient rats; type: in vivo; details: for I/O (inside Ca⁴⁵/outside Ca⁴⁵) ± S.D.: 24 hours later, vehicle 1.6 ± 0.3; for stimulating intestinal calcium absorption (result in words): summary of the table data, oral dosing of rats
Procedure: (§1) The vitamin D₃, 3β-glucoside vitamin D₃, 3α-glucoside and the vitamin D₃, 3β glucoside acetate were tested for biological activity. Male weanling rats from Holtzmann Company, Madison, Wisconsin, U.S.A., were fed a vitamin D deficient diet that was adequate in phosphorus and low in calcium (0.02%) for 3-1/2 weeks. Groups of five animals received orally either 4 µg, 1 µg, 0.5 µg, 0.25 µg of Vitamin D₃ -3β- glucoside, 1 µg Vitamin D₃ -3α- glucoside or 2 µg Vitamin D₃ -3β- glucoside acetate in 50 µl of 95% ethanol or vehicle alone. 24 hours later the animals were sacrificed and the small intestine and blood were collected. Intestinal calcium transport studies were performed by the everted gut sac technique, and blood was used for serum calcium determinations.

[3] = Serum calcium determination (bone calcium mobilization) after oral dosing of vitamin D deficient rats on low calcium diet; type: in vivo
Procedure: as §1

What does the source list for C=C1/C(=C\C=C2/CCC[C@]3(C)[C@@H]([C@H](C)CCCC(C)(C)O)CC[C@@H]23)C[C@@H](O)C[C@@H]1O [1α, 25-(OH)₂D₃]?
times more potent than D₃ [1]: 5-10 times; times more potent than the monohydroxy form of the vitamin [1]: 2-5 times

Which “I/O (inside Ca⁴⁵/outside Ca⁴⁵) ± S.D.” value ([2]; 2 µg orally in 50 µl of 95% ethanol) does the source give for C=C1CC[C@H](O[C@@H]2O[C@H](COC(C)=O)[C@@H](OC(C)=O)[C@H](OC(C)=O)[C@H]2OC(C)=O)C/C1=C/C=C1\CCC[C@]2(C)[C@@H]([C@H](C)CCCC(C)C)CC[C@@H]12 [Vitamin D₃ 3β- glucoside acetate, 9,10-secocholesta-5,7,10(19)-trien-3β-yl-2',3',4',6'-tetra-O-acetyl -β-D-glucopyranoside] here?
Its value is 1.7 ± 0.2.

What about the “stimulating intestinal calcium absorption (result in words)” value [2] of the same compound?
The value was “appears inactive”.

What does the source list for C=C1CC[C@H](O[C@@H]2O[C@H](CO)[C@@H](O)[C@H](O)[C@H]2O)C/C1=C/C=C1\CCC[C@]2(C)[C@@H]([C@H](C)CCCC(C)C)CC[C@@H]12 [Vitamin D₃ 3β- glucoside, 9,10-secocholesta-5,7,10(19)triene-3β-yl -β-D-glucopyranoside]?
Serum Calcium ± S.D. ([3]; 4 µg orally in 50 µl of 95% ethanol, 24 hours later, vehicle 4.3 ± 0.2): 5.3 ± 0.2; stimulating bone calcium mobilization (result in words) ([3]; summary of the table data, oral dosing of rats): capable of stimulating; I/O (inside Ca⁴⁵/outside Ca⁴⁵) ± S.D. ([2]; 0.25 µg orally in 50 µl of 95% ethanol): 2.0 ± 0.2; I/O (inside Ca⁴⁵/outside Ca⁴⁵) ± S.D. ([2]; 0.5 µg orally in 50 µl of 95% ethanol): 2.5 ± 0.2; I/O (inside Ca⁴⁵/outside Ca⁴⁵) ± S.D. ([2]; 1 µg orally in 50 µl of 95% ethanol): 3.6 ± 0.3; I/O (inside Ca⁴⁵/outside Ca⁴⁵) ± S.D. ([2]; 4 µg orally in 50 µl of 95% ethanol, male weanling rats, vitamin D deficient low calcium diet): 3.9 ± 0.2; stimulating intestinal calcium absorption (result in words) [2]: capable of stimulating intestinal calcium absorption
